For one molecule, IC50 results are on record in publication PMC10276154, “Development of the nonreceptor tyrosine kinase FER-targeting PROTACs as a potential strategy for antagonizing ovarian cancer cell motility and invasiveness” (The Journal of Biological Chemistry, 2023).

In this assay the target is FER (Homo sapiens, UniProt P16591). The assay can be described thus: pY402-FER autophosphorylation immunoblot in HEK293FT cells transfected with pLV-FER, […] h. It is filed as cell-based. (In general: In western blotting, separated proteins are transferred to a membrane and probed.)
FER, sequence (P16591 whole entry): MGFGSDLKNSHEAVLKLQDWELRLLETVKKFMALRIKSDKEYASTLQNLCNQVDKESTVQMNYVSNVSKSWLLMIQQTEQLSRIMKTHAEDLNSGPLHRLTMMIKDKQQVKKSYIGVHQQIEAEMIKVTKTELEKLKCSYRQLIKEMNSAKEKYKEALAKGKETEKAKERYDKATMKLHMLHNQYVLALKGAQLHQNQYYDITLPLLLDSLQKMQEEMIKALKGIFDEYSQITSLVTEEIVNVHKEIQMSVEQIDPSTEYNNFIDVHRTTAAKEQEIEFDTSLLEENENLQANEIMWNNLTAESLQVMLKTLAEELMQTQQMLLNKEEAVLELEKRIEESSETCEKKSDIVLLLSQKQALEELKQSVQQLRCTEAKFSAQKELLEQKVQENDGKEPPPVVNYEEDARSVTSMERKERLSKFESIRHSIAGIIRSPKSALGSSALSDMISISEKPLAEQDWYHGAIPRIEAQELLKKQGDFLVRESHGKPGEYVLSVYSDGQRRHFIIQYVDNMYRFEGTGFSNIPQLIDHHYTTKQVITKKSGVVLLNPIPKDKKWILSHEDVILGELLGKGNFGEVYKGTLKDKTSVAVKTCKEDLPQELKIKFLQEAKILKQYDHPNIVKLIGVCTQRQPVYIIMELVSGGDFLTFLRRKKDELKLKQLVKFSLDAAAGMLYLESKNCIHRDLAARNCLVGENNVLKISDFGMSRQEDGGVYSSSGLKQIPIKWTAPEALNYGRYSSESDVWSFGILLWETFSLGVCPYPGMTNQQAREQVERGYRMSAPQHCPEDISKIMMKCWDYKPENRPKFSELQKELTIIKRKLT

`COc1cc(N2CCC(N3CCN(C)CC3)CC2)ccc1Nc1ncc(Cl)c(Nc2ccccc2P(C)(C)=O)n1` [brigatinib] showed an IC50 of 138 nM.

What is called IC50 is the midpoint of a concentration-inhibition curve. A lower IC50 goes with higher potency.
